Tests used:
Assay type in all cases: functional
Details in all cases: read-out: GI
CCRF-CEM = test: Growth inhibition of human CCRF-CEM cells at 10 uM incubated for 48 hrs by sulforhodamine B assay relative to control
HL-60(TB) = test: Growth inhibition of human HL-60(TB) cells at 10 uM incubated for 48 hrs by sulforhodamine B assay relative to control
RPMI-8226 = test: Growth inhibition of human RPMI-8226 cells at 10 uM incubated for 48 hrs by sulforhodamine B assay relative to control
SR = test: Growth inhibition of human SR cells at 10 uM incubated for 48 hrs by sulforhodamine B assay relative to control
A549 = test: Growth inhibition of human A549/ATCC cells at 10 uM incubated for 48 hrs by sulforhodamine B assay relative to control
HOP-92 = test: Growth inhibition of human HOP-92 cells at 10 uM incubated for 48 hrs by sulforhodamine B assay relative to control
NCI-H226 = test: Growth inhibition of human NCI-H226 cells at 10 uM incubated for 48 hrs by sulforhodamine B assay relative to control
NCI-H23 = test: Growth inhibition of human NCI-H23 cells at 10 uM incubated for 48 hrs by sulforhodamine B assay relative to control
NCI-H322M = test: Growth inhibition of human NCI-H322M cells at 10 uM incubated for 48 hrs by sulforhodamine B assay relative to control
NCI-H460 = test: Growth inhibition of human NCI-H460 cells at 10 uM incubated for 48 hrs by sulforhodamine B assay relative to control
NCI-H522 = test: Growth inhibition of human NCI-H522 cells at 10 uM incubated for 48 hrs by sulforhodamine B assay relative to control
COLO 205 = test: Growth inhibition of human COLO 205 cells at 10 uM incubated for 48 hrs by sulforhodamine B assay relative to control
HCC 2998 = test: Growth inhibition of human HCC 2998 cells at 10 uM incubated for 48 hrs by sulforhodamine B assay relative to control
HCT-116 = test: Growth inhibition of human HCT-116 cells at 10 uM incubated for 48 hrs by sulforhodamine B assay relative to control
HCT-15 = test: Growth inhibition of human HCT-15 cells at 10 uM incubated for 48 hrs by sulforhodamine B assay relative to control
HT-29 = test: Growth inhibition of human HT-29 cells at 10 uM incubated for 48 hrs by sulforhodamine B assay relative to control
KM12 = test: Growth inhibition of human KM12 cells at 10 uM incubated for 48 hrs by sulforhodamine B assay relative to control
SW-620 = test: Growth inhibition of human SW-620 cells at 10 uM incubated for 48 hrs by sulforhodamine B assay relative to control
SF-268 = test: Growth inhibition of human SF-268 cells at 10 uM incubated for 48 hrs by sulforhodamine B assay relative to control
SF-295 = test: Growth inhibition of human SF-295 cells at 10 uM incubated for 48 hrs by sulforhodamine B assay relative to control
SF-539 = test: Growth inhibition of human SF-539 cells at 10 uM incubated for 48 hrs by sulforhodamine B assay relative to control
SNB-19 = test: Growth inhibition of human SNB-19 cells at 10 uM incubated for 48 hrs by sulforhodamine B assay relative to control
U-251 = test: Growth inhibition of human U-251 cells at 10 uM incubated for 48 hrs by sulforhodamine B assay relative to control
LOX IMVI = test: Growth inhibition of human LOX IMVI cells at 10 uM incubated for 48 hrs by sulforhodamine B assay relative to control
M14 = test: Growth inhibition of human M14 cells at 10 uM incubated for 48 hrs by sulforhodamine B assay relative to control
MDA-MB-435 = test: Growth inhibition of human MDA-MB-435 cells at 10 uM incubated for 48 hrs by sulforhodamine B assay relative to control
SK-MEL-5 = test: Growth inhibition of human SK-MEL-5 cells at 10 uM incubated for 48 hrs by sulforhodamine B assay relative to control
UACC-257 = test: Growth inhibition of human UACC-257 cells at 10 uM incubated for 48 hrs by sulforhodamine B assay relative to control
UACC-62 = test: Growth inhibition of human UACC-62 cells at 10 uM incubated for 48 hrs by sulforhodamine B assay relative to control
OVCAR-4 = test: Growth inhibition of human OVCAR-4 cells at 10 uM incubated for 48 hrs by sulforhodamine B assay relative to control
OVCAR-5 = test: Growth inhibition of human OVCAR-5 cells at 10 uM incubated for 48 hrs by sulforhodamine B assay relative to control
OVCAR-8 = test: Growth inhibition of human OVCAR-8 cells at 10 uM incubated for 48 hrs by sulforhodamine B assay relative to control
SK-OV-3 = test: Growth inhibition of human SK-OV-3 cells at 10 uM incubated for 48 hrs by sulforhodamine B assay relative to control
ACHN = test: Growth inhibition of human ACHN cells at 10 uM incubated for 48 hrs by sulforhodamine B assay relative to control
RXF 393 = test: Growth inhibition of human RXF 393 cells at 10 uM incubated for 48 hrs by sulforhodamine B assay relative to control
SN12C = test: Growth inhibition of human SN12C cells at 10 uM incubated for 48 hrs by sulforhodamine B assay relative to control
TK-10 = test: Growth inhibition of human TK-10 cells at 10 uM incubated for 48 hrs by sulforhodamine B assay relative to control
UO-31 = test: Growth inhibition of human UO-31 cells at 10 uM incubated for 48 hrs by sulforhodamine B assay relative to control
PC-3 = test: Growth inhibition of human PC-3 cells at 10 uM incubated for 48 hrs by sulforhodamine B assay relative to control
DU-145 = test: Growth inhibition of human DU-145 cells at 10 uM incubated for 48 hrs by sulforhodamine B assay relative to control
MDA-MB-231 = test: Growth inhibition of human MDA-MB-231 cells at 10 uM incubated for 48 hrs by sulforhodamine B assay relative to control
Hs-578T = test: Growth inhibition of human Hs-578T cells at 10 uM incubated for 48 hrs by sulforhodamine B assay relative to control
T47D = test: Growth inhibition of human T47D cells at 10 uM incubated for 48 hrs by sulforhodamine B assay relative to control
MDA-MB-468 = test: Growth inhibition of human MDA-MB-468 cells at 10 uM incubated for 48 hrs by sulforhodamine B assay relative to control

## O=C(CNC1CCCCC1)Nc1ccc(-c2nc3ccccc3s2)cc1
CCRF-CEM
  inhibition of growth at 10 µM: 22.7%
HL-60(TB)
  inhibition of growth at 10 µM: 33.2%
RPMI-8226
  inhibition of growth at 10 µM: 22.4%
SR
  inhibition of growth at 10 µM: 90.3%
A549
  inhibition of growth at 10 µM: 12%
HOP-92
  inhibition of growth at 10 µM: 51.2%
NCI-H226
  inhibition of growth at 10 µM: 19.7%
NCI-H23
  inhibition of growth at 10 µM: 23.8%
NCI-H322M
  inhibition of growth at 10 µM: 8.27%
NCI-H460
  inhibition of growth at 10 µM: 8.69%
NCI-H522
  inhibition of growth at 10 µM: 4.54%
COLO 205
  inhibition of growth at 10 µM: 4.58%
HCC 2998
  inhibition of growth at 10 µM: 12.7%
HCT-116
  inhibition of growth at 10 µM: 23%
HCT-15
  inhibition of growth at 10 µM: 37.1%
HT-29
  inhibition of growth at 10 µM: 37.7%
KM12
  inhibition of growth at 10 µM: 16.1%
SW-620
  inhibition of growth at 10 µM: -0.38%
SF-268
  inhibition of growth at 10 µM: 21.6%
SF-295
  inhibition of growth at 10 µM: 14.1%
SF-539
  inhibition of growth at 10 µM: 12.5%
SNB-19
  inhibition of growth at 10 µM: 9.04%
U-251
  inhibition of growth at 10 µM: 34.9%
LOX IMVI
  inhibition of growth at 10 µM: 26.1%
M14
  inhibition of growth at 10 µM: 10.6%
MDA-MB-435
  inhibition of growth at 10 µM: 9.63%
SK-MEL-5
  inhibition of growth at 10 µM: 9.16%
UACC-257
  inhibition of growth at 10 µM: -4.65%
UACC-62
  inhibition of growth at 10 µM: 3.76%
OVCAR-4
  inhibition of growth at 10 µM: 15.6%
OVCAR-5
  inhibition of growth at 10 µM: 5.32%
OVCAR-8
  inhibition of growth at 10 µM: 0.73%
SK-OV-3
  inhibition of growth at 10 µM: 9.23%
ACHN
  inhibition of growth at 10 µM: 0.89%
RXF 393
  inhibition of growth at 10 µM: 31.5%
SN12C
  inhibition of growth at 10 µM: 13.3%
TK-10
  inhibition of growth at 10 µM: -2.86%
UO-31
  inhibition of growth at 10 µM: 43.5%
PC-3
  inhibition of growth at 10 µM: 20.3%
DU-145
  inhibition of growth at 10 µM: 10.7%
MDA-MB-231
  inhibition of growth at 10 µM: 53.8%
Hs-578T
  inhibition of growth at 10 µM: 15.8%
T47D
  inhibition of growth at 10 µM: 30.9%
MDA-MB-468
  inhibition of growth at 10 µM: 64.1%

## CN1CCN(CC(=O)Nc2ccc(-c3nc4ccccc4s3)cc2)CC1
CCRF-CEM
  inhibition of growth at 10 µM: 36.3%
HL-60(TB)
  inhibition of growth at 10 µM: 3.63%
RPMI-8226
  inhibition of growth at 10 µM: 11.9%
SR
  inhibition of growth at 10 µM: 93.7%
A549
  inhibition of growth at 10 µM: 11.4%
HOP-92
  inhibition of growth at 10 µM: 64.3%
NCI-H226
  inhibition of growth at 10 µM: 3.83%
NCI-H23
  inhibition of growth at 10 µM: 17.8%
NCI-H322M
  inhibition of growth at 10 µM: 22.1%
NCI-H460
  inhibition of growth at 10 µM: 15.3%
NCI-H522
  inhibition of growth at 10 µM: 41.1%
COLO 205
  inhibition of growth at 10 µM: 60.3%
HCC 2998
  inhibition of growth at 10 µM: 22.7%
HCT-116
  inhibition of growth at 10 µM: 29.1%
HCT-15
  inhibition of growth at 10 µM: 47.1%
HT-29
  inhibition of growth at 10 µM: 60.4%
KM12
  inhibition of growth at 10 µM: 14.4%
SW-620
  inhibition of growth at 10 µM: -2.26%
SF-268
  inhibition of growth at 10 µM: 17%
SF-295
  inhibition of growth at 10 µM: 8.86%
SF-539
  inhibition of growth at 10 µM: 132%
SNB-19
  inhibition of growth at 10 µM: 10.3%
U-251
  inhibition of growth at 10 µM: 32.5%
LOX IMVI
  inhibition of growth at 10 µM: 134%
M14
  inhibition of growth at 10 µM: 32.4%
MDA-MB-435
  inhibition of growth at 10 µM: 74.6%
SK-MEL-5
  inhibition of growth at 10 µM: 26.3%
UACC-257
  inhibition of growth at 10 µM: -5.35%
UACC-62
  inhibition of growth at 10 µM: 136%
OVCAR-4
  inhibition of growth at 10 µM: 12.7%
OVCAR-5
  inhibition of growth at 10 µM: 27.1%
OVCAR-8
  inhibition of growth at 10 µM: 8.74%
SK-OV-3
  inhibition of growth at 10 µM: 5.77%
ACHN
  inhibition of growth at 10 µM: 28.8%
RXF 393
  inhibition of growth at 10 µM: 45.7%
SN12C
  inhibition of growth at 10 µM: 22.3%
TK-10
  inhibition of growth at 10 µM: 5.2%
UO-31
  inhibition of growth at 10 µM: 42.5%
PC-3
  inhibition of growth at 10 µM: 16.4%
DU-145
  inhibition of growth at 10 µM: 14.8%
MDA-MB-231
  inhibition of growth at 10 µM: 40.2%
Hs-578T
  inhibition of growth at 10 µM: 6.34%
T47D
  inhibition of growth at 10 µM: 45.9%
MDA-MB-468
  inhibition of growth at 10 µM: 111%

Source: ChEMBL document CHEMBL4765227, “Hit to lead optimization of a series of N-[4-(1,3-benzothiazol-2-yl)phenyl]acetamides as monoacylglycerol lipase inhibitors with potential anticancer activity” (Eur J Med Chem, 2016)
